In the kinase profiling compilation of Christmann-Franck et al. (2016):

Tests used:
Test in all cases: radiometric filter-binding kinase assay
[1] = biological target: PIM3 (human) (UniProt Q86V86)
[2] = biological target: CSNK2A1 (human) (UniProt P68400)
[3] = biological target: INSRR (human) (UniProt P14616)
[4] = biological target: MAP2K6 (human) (UniProt P52564)
[5] = tested on: SGK1 (human), O00141 [S422D]
[6] = biological target: RPS6KA3 KD1 KD2 (human) (UniProt P51812)
[7] = biological target: BRSK1 (human) (UniProt Q8TDC3)
Sequence of BRSK1 (human) (Q8TDC3 whole entry, looked up): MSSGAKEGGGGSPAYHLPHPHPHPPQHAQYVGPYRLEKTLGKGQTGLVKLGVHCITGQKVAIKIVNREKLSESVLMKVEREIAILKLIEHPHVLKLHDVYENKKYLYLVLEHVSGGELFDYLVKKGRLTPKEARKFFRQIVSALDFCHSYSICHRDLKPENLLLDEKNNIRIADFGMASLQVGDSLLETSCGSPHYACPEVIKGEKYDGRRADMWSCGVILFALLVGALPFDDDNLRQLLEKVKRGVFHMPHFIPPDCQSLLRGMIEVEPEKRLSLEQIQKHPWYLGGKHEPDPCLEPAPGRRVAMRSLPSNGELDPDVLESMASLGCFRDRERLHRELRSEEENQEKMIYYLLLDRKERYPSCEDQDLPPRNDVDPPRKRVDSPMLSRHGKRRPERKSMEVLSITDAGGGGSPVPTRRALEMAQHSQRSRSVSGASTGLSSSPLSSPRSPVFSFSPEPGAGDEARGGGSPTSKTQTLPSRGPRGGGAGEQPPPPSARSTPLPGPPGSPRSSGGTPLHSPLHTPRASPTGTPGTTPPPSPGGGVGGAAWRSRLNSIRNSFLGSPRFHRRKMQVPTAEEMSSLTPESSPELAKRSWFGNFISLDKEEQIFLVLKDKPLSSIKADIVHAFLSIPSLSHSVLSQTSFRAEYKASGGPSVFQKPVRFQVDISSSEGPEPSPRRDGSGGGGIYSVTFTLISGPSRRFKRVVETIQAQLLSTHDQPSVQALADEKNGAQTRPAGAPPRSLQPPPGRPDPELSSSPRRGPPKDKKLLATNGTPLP

[8] = biological target: MAPKAPK5 (human) (UniProt Q8IW41)
[9] = biological target: MST4 (human) (UniProt Q9P289)
[10] = biological target: ERBB4 (human) (UniProt Q15303)
[11] = biological target: MAP2K2 (human) (UniProt P36507)
[12] = biological target: DYRK2 (human) (UniProt Q92630)
[13] = biological target: TAOK1 (human) (UniProt Q7L7X3)
[14] = biological target: FGFR1 (human) (UniProt P11362)
[15] = biological target: PHKG1 (human) (UniProt Q16816)
[16] = biological target: MAPK10 (human) (UniProt P53779)
[17] = biological target: EEF2K (human) (UniProt O00418)
[18] = biological target: FLT1 (human) (UniProt P17948)
[19] = biological target: AURKB (human) (UniProt Q96GD4)
[20] = biological target: MAPK12 (human) (UniProt P53778)
[21] = biological target: MAPKAPK3 (human) (UniProt Q16644)
Sequence of MAPKAPK3 (human) (Q16644 whole entry, looked up): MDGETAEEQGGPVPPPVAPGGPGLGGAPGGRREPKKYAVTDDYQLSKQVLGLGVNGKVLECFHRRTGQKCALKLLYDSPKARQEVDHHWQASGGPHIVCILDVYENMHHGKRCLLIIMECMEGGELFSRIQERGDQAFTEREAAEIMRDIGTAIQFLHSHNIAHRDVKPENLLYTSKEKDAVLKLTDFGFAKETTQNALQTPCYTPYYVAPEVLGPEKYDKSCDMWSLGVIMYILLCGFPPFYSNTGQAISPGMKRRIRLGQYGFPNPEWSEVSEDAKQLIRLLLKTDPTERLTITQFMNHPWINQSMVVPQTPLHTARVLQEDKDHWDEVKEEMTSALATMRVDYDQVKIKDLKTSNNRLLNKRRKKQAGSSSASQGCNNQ

[22] = biological target: MELK (human) (UniProt Q14680)
[23] = biological target: CHEK1 (human) (UniProt O14757)
[24] = biological target: CDK2 CCNA2 (human) (UniProt P20248+P24941)
[25] = biological target: PIM2 (human) (UniProt Q9P1W9)
Sequence of PIM2 (human) (Q9P1W9 whole entry, looked up): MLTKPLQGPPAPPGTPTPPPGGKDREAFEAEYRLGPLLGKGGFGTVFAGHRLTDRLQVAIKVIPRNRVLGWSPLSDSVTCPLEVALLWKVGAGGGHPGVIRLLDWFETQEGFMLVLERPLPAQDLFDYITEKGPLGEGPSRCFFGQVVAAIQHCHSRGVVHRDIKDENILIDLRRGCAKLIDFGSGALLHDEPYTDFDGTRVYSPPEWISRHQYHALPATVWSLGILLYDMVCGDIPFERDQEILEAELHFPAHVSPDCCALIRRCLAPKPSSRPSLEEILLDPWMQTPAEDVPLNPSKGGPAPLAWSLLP

[26] = biological target: GCK (human) (UniProt Q12851)
Sequence of GCK (human) (Q12851 whole entry, looked up): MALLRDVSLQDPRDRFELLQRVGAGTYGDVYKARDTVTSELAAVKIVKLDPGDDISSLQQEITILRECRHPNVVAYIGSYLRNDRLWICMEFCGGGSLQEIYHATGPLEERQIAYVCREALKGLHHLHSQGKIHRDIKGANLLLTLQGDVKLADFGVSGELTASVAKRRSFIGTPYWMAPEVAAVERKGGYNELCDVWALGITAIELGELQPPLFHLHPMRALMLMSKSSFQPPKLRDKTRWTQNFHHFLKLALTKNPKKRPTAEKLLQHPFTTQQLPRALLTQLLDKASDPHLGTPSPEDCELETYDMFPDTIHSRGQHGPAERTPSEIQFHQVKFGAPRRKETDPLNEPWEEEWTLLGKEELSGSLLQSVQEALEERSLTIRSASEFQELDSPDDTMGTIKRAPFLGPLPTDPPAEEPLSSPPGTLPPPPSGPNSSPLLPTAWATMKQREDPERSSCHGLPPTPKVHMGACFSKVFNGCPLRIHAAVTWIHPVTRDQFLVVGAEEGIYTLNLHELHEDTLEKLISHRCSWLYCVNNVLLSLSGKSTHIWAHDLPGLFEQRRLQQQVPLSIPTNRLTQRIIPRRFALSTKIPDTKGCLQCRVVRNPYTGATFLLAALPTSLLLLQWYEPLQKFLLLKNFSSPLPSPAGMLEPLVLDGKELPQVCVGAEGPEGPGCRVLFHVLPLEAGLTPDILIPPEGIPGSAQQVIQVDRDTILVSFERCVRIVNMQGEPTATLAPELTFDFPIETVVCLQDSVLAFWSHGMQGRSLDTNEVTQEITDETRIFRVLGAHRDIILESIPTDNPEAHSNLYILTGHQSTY

[27] = tested on: PAK2 (human), Q13177 [T402E]
Sequence of PAK2 (human), Q13177 [T402E] (Q13177 whole entry T402E, looked up): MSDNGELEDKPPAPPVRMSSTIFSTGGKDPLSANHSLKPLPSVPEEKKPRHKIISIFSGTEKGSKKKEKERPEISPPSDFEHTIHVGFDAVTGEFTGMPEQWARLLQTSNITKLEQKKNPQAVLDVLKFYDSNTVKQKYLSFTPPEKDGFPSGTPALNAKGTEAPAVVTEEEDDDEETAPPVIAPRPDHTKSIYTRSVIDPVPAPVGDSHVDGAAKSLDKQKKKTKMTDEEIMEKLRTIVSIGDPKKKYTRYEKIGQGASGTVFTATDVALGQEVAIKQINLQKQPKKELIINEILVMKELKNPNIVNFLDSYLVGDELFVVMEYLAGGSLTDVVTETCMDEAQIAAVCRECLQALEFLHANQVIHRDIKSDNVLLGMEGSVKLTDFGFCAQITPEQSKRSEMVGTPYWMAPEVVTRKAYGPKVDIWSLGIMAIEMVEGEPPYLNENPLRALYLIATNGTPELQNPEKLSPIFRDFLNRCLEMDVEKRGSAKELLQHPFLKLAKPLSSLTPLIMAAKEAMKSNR

[28] = biological target: PRKACA (human) (UniProt P17612)
[29] = biological target: RIPK2 (human) (UniProt O43353)
[30] = biological target: AURKA (human) (UniProt O14965)
[31] = biological target: MAPK15 (human) (UniProt Q8TD08)
[32] = biological target: SRPK1 (human) (UniProt Q96SB4)
[33] = biological target: PRKCA (human) (UniProt P17252)
[34] = biological target: MINK1 (human) (UniProt Q8N4C8)
Sequence of MINK1 (human) (Q8N4C8 whole entry, looked up): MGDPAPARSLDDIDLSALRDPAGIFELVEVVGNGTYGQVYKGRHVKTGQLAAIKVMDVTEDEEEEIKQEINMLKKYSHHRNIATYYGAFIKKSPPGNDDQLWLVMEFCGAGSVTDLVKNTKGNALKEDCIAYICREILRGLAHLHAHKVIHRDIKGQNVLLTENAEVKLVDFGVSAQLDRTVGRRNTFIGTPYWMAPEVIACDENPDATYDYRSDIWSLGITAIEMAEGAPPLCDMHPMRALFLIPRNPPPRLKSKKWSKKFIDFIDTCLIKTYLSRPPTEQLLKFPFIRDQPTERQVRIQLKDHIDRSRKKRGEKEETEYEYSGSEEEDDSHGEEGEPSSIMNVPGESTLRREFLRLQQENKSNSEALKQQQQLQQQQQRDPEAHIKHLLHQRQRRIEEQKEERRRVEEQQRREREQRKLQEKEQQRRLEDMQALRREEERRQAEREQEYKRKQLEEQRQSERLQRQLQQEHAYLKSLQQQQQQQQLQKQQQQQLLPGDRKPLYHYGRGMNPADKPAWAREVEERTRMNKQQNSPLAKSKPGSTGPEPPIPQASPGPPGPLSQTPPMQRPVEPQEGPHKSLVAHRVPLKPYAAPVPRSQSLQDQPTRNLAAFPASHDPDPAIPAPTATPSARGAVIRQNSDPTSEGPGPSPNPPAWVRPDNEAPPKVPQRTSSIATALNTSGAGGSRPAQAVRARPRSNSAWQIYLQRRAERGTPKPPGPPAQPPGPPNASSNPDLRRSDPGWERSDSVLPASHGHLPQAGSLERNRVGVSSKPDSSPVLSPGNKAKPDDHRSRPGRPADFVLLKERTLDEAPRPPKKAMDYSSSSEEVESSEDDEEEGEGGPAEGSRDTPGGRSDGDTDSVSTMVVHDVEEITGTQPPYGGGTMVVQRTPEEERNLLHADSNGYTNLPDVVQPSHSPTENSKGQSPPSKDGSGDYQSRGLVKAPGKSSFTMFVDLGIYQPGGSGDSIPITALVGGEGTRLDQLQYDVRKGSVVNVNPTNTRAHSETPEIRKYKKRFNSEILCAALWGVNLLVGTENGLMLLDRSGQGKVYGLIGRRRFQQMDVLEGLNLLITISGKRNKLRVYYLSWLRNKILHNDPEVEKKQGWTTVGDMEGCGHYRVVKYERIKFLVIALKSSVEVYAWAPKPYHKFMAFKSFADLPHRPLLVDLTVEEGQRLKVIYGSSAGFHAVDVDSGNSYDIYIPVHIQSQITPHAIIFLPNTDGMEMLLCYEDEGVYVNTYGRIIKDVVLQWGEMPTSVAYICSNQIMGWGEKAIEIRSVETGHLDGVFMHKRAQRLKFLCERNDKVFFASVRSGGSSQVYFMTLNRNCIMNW

[35] = biological target: EPHA2 (human) (UniProt P29317)
[36] = biological target: BTK (human) (UniProt Q06187)
Sequence of BTK (human) (Q06187 whole entry, looked up): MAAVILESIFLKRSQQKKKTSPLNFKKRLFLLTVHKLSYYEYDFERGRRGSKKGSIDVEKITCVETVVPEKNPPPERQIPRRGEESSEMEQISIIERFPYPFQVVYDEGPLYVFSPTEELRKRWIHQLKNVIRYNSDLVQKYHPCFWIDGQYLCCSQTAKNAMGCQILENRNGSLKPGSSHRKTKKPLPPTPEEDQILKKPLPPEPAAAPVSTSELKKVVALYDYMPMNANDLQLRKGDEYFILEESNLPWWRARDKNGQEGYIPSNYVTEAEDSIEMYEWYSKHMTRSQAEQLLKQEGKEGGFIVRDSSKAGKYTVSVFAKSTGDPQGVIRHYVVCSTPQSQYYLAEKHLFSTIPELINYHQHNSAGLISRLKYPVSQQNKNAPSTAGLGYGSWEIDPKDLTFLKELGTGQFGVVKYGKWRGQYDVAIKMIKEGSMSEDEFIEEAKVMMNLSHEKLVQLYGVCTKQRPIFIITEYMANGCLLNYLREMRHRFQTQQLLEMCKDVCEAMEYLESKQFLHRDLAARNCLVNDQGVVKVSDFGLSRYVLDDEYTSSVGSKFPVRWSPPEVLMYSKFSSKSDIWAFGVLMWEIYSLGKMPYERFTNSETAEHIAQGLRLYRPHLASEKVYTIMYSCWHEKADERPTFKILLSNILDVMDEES

residual activity ([1]; compound 0.1 µM): 89%
residual activity ([1]; compound 1.0 µM): 83%
residual activity ([1]; compound 10.0 µM): 51%
residual activity ([2]; compound 0.1 µM): 104%
residual activity ([2]; compound 10.0 µM): 84%
residual activity ([3]; compound 0.1 µM): 95%
residual activity ([3]; compound 1.0 µM): 80%
residual activity ([3]; compound 10.0 µM): 61%
residual activity ([4]; compound 0.1 µM): 109%
residual activity ([4]; compound 1.0 µM): 98%
residual activity ([4]; compound 10.0 µM): 104%
residual activity ([5]; compound 0.1 µM): 90%
residual activity ([5]; compound 1.0 µM): 85%
residual activity ([5]; compound 10.0 µM): 63%
residual activity ([6]; compound 0.1 µM): 91%
residual activity ([6]; compound 1.0 µM): 90%
residual activity ([6]; compound 10.0 µM): 81%
residual activity ([7]; compound 0.1 µM): 115%
residual activity ([7]; compound 1.0 µM): 112%
residual activity ([7]; compound 10.0 µM): 87%
residual activity ([8]; compound 0.1 µM): 81%
residual activity ([8]; compound 10.0 µM): 102%
residual activity ([9]; compound 0.1 µM): 95%
residual activity ([9]; compound 1.0 µM): 103%
residual activity ([9]; compound 10.0 µM): 105%
residual activity ([10]; compound 0.1 µM): 111%
residual activity ([10]; compound 1.0 µM): 95%
residual activity ([11]; compound 0.1 µM): 103%
residual activity ([11]; compound 1.0 µM): 99%
residual activity ([11]; compound 10.0 µM): 90%
residual activity ([12]; compound 0.1 µM): 96%
residual activity ([12]; compound 1.0 µM): 96%
residual activity ([12]; compound 10.0 µM): 87%
residual activity ([13]; compound 0.1 µM): 104%
residual activity ([13]; compound 1.0 µM): 90%
residual activity ([13]; compound 10.0 µM): 85%
residual activity ([14]; compound 0.1 µM): 100%
residual activity ([14]; compound 1.0 µM): 95%
residual activity ([14]; compound 10.0 µM): 70%
residual activity ([15]; compound 0.1 µM): 109%
residual activity ([15]; compound 1.0 µM): 98%
residual activity ([15]; compound 10.0 µM): 68%
residual activity ([16]; compound 0.1 µM): 93%
residual activity ([16]; compound 1.0 µM): 91%
residual activity ([16]; compound 10.0 µM): 84%
residual activity ([17]; compound 0.1 µM): 101%
residual activity ([17]; compound 1.0 µM): 104%
residual activity ([17]; compound 10.0 µM): 109%
residual activity ([18]; compound 0.1 µM): 88%
residual activity ([18]; compound 1.0 µM): 81%
residual activity ([18]; compound 10.0 µM): 53%
residual activity ([19]; compound 0.1 µM): 106%
residual activity ([19]; compound 1.0 µM): 88%
residual activity ([19]; compound 10.0 µM): 78%
residual activity ([20]; compound 0.1 µM): 94%
residual activity ([20]; compound 1.0 µM): 94%
residual activity ([20]; compound 10.0 µM): 101%
residual activity ([21]; compound 0.1 µM): 88%
residual activity ([21]; compound 1.0 µM): 107%
residual activity ([21]; compound 10.0 µM): 94%
residual activity ([22]; compound 0.1 µM): 80%
residual activity ([22]; compound 1.0 µM): 75%
residual activity ([22]; compound 10.0 µM): 80%
residual activity ([23]; compound 0.1 µM): 96%
residual activity ([23]; compound 1.0 µM): 78%
residual activity ([23]; compound 10.0 µM): 45%
residual activity ([24]; compound 0.1 µM): 100%
residual activity ([24]; compound 1.0 µM): 84%
residual activity ([24]; compound 10.0 µM): 75%
residual activity ([25]; compound 0.1 µM): 86%
residual activity ([25]; compound 1.0 µM): 105%
residual activity ([25]; compound 10.0 µM): 97%
residual activity ([26]; compound 0.1 µM): 108%
residual activity ([26]; compound 1.0 µM): 97%
residual activity ([26]; compound 10.0 µM): 85%
residual activity ([27]; compound 0.1 µM): 98%
residual activity ([27]; compound 1.0 µM): 94%
residual activity ([27]; compound 10.0 µM): 103%
residual activity ([28]; compound 0.1 µM): 104%
residual activity ([28]; compound 1.0 µM): 91%
residual activity ([28]; compound 10.0 µM): 90%
residual activity ([29]; compound 0.1 µM): 101%
residual activity ([29]; compound 1.0 µM): 84%
residual activity ([29]; compound 10.0 µM): 38%
residual activity ([30]; compound 0.1 µM): 114%
residual activity ([30]; compound 1.0 µM): 89%
residual activity ([30]; compound 10.0 µM): 93%
residual activity ([32]; compound 0.1 µM): 107%
residual activity ([32]; compound 1.0 µM): 106%
residual activity ([32]; compound 10.0 µM): 116%
residual activity ([33]; compound 0.1 µM): 97%
residual activity ([33]; compound 1.0 µM): 94%
residual activity ([33]; compound 10.0 µM): 98%
residual activity ([34]; compound 0.1 µM): 106%
residual activity ([34]; compound 1.0 µM): 86%
residual activity ([34]; compound 10.0 µM): 69%
residual activity ([35]; compound 0.1 µM): 86%
residual activity ([35]; compound 1.0 µM): 95%
residual activity ([35]; compound 10.0 µM): 87%
residual activity ([36]; compound 0.1 µM): 87%
residual activity ([36]; compound 1.0 µM): 96%
residual activity ([36]; compound 10.0 µM): 99%
SMILES: NC1(c2ccc(-c3nc4ccn5c(=O)[nH]nc5c4cc3-c3ccccc3)cc2)CCC1
residual activity ([31]; compound 0.1 µM): 106%
residual activity ([31]; compound 1.0 µM): 89%
residual activity ([31]; compound 10.0 µM): 93%
